The subject of assay [1] is Bacillus subtilis POI-219. The assay is described as follows: MIC, agar plate doubling dilution method. It counts as cell-based. The note with it: POI219, HI agar, 37° C., 20 hours, read-out: minimum inhibitory concentration (MIC). The procedure:
(§1) Invitro antibacterial activity was measured by the agar plate doubling dilution method described below. A test culture incubated overnight in a heart infusion broth was diluted by 100 to 1000 fold and one […] of the culture was inoculated on heart infusion agars (HI agar) containing various concentrations of a specific compound and the inoculates were incubated at 37° C. for 20 hours.

Another assay deals with Escherichia coli NIHJ. The assay is described as follows: MIC, agar plate doubling dilution method. It counts as cell-based. As to conditions: HI agar, 37° C., 20 hours, read-out: minimum inhibitory concentration (MIC). How it is done: as §1
The test system of assay [2] is Klebsiella pneumoniae 15c. Briefly: MIC, agar plate doubling dilution method. It counts as cell-based. As to conditions: HI agar, 37° C., 20 hours, read-out: minimum inhibitory concentration (MIC). The procedure:
as §1

In a further assay the test system is Proteus mirabilis 9'. The assay is described as follows: MIC, agar plate doubling dilution method. Type of assay: cell-based. The note with it: HI agar, 37° C., 20 hours, read-out: minimum inhibitory concentration (MIC). The procedure: as §1
For assay [3], the system named is Pseudomonas aeruginosa J-169-CM-222. Briefly: MIC, agar plate doubling dilution method. Type of assay: cell-based. As to conditions: J169CM222, HI agar, 37° C., 20 hours, read-out: minimum inhibitory concentration (MIC). The procedure: as §1
Assay [4] concerns Pseudomonas aeruginosa J-169. Briefly: MIC, agar plate doubling dilution method. It counts as cell-based. As to conditions: J169, HI agar, 37° C., 20 hours, read-out: minimum inhibitory concentration (MIC). How it is done: as §1
In assay [5] the test system is Pseudomonas aeruginosa J-272. The assay is described as follows: MIC, agar plate doubling dilution method. The note with it: J272, HI agar, 37° C., 20 hours, read-out: minimum inhibitory concentration (MIC). It counts as cell-based. How it is done: as §1
Another assay relates to Salmonella paratyphi A. The assay is described as follows: MIC, agar plate doubling dilution method. It counts as cell-based. As to conditions: Salmonella enterica, 20 h, read-out: minimum inhibitory concentration (MIC). How it is done:
as §1

Another assay has as its system Shigella flexneri 2b. The assay is described as follows: MIC, agar plate doubling dilution method. The note with it: HI agar, 37° C., 20 hours, read-out: minimum inhibitory concentration (MIC). It counts as cell-based. The procedure: as §1
Assay [6] deals with Staphylococcus aureus 209P. The assay is described as follows: MIC, agar plate doubling dilution method. It counts as cell-based. The note with it: HI agar, 37° C., 20 hours, read-out: minimum inhibitory concentration (MIC). The procedure:
as §1

For assay [7], the system named is Pseudomonas aeruginosa J-272. Briefly: ED50 in mice infected intraperitoneally with Pseudomonas aeruginosa. The note with it: subcutaneous 1 h and 3 h after inoculation, 1 × 10^4 cells inoculated i.p. in 5% mucin, survival five days after injection. Type of assay: in vivo, ddY male mice. How it is done: Five-week-old ddY male mice (five constituting one group) weighing 21 to 25 g on average were administered intraperitoneally with 5% mucin suspensions of test microorganisms that were incubated in brain heart infusion agar plates overnight at 37° C.
One hour and three hours after the inoculation, the mice were injected subcutaneously with various concentrations of the test compounds. The ED50 of each test compound was determined from the number of the mice that were still alive five days after injection of the respective doses.

Values after ≈ are worked out from the molar mass of the structure shown.

Regarding `CC1(C)S[C@@H]2[C@H](NC(=O)[C@H](NC(=O)N(CCCO)C(=O)c3ccc(O)c(O)c3)c3ccccc3)C(=O)N2[C@H]1C(=O)O` [compound (a), 6-[D(-)-α-{3-(3,4-dihydroxybenzoyl)-3-(3-hydroxypropyl)-1-ureido}-α-phenylacetamido]penicillanic acid], the MIC in assay [1] stood at 0.2 µg/mL (≈ 0.341 µM); in the assay on Escherichia coli NIHJ, 0.4 µg/mL (≈ 0.682 µM); in assay [2] it was 0.4 µg/mL (≈ 0.682 µM); with Proteus mirabilis 9', 1.56 µg/mL (≈ 2.66 µM); in assay [3], 3.12 µg/mL (≈ 5.32 µM); in [4] it was 0.78 µg/mL (≈ 1.33 µM). The MIC in assay [5] was 0.4 µg/mL (≈ 0.682 µM); with Salmonella paratyphi A, at most 0.1 µg/mL; in the assay with Shigella flexneri 2b, at most 0.1 µg/mL; in [6] it was 0.78 µg/mL (≈ 1.33 µM). Besides, the “ED50 (SC)” value in [7] amounted to 0.61 mg/head.
For the compound `CC1(C)S[C@@H]2[C@H](NC(=O)[C@H](NC(=O)N(CCO)C(=O)c3ccc(O)c(O)c3)c3ccccc3)C(=O)N2[C@H]1C(=O)O` [compound (b), 6-[D(-)-α-{3-(3,4-dihydroxybenzoyl)-3-(2-hydroxyethyl)-1-ureido}-α-phenylacetamide]penicillanic acid], the MIC in assay [1] worked out at 0.78 µg/mL (≈ 1.36 µM); in the assay with Escherichia coli NIHJ it was 6.25 µg/mL (≈ 10.9 µM); in assay [2], 3.12 µg/mL (≈ 5.45 µM); in the assay on Proteus mirabilis 9', 3.12 µg/mL (≈ 5.45 µM); in assay [3] it was 25 µg/mL (≈ 43.7 µM); in [4], 3.12 µg/mL (≈ 5.45 µM). Moreover, the MIC in assay [5] was 0.78 µg/mL (≈ 1.36 µM); in the assay on Salmonella paratyphi A, at most 0.1 µg/mL; with Shigella flexneri 2b it was at most 0.1 µg/mL; in assay [6] it was 1.56 µg/mL (≈ 2.72 µM). Also, the “ED50 (SC)” value in assay [7] was found to be 1.20 mg/head.
On to `CC1(C)S[C@@H]2[C@H](NC(=O)[C@H](NC(=O)N(CCOCCO)C(=O)c3ccc(O)c(O)c3)c3ccccc3)C(=O)N2[C@H]1C(=O)O` [compound (c), 6-[D(-)-α-[3-(3,4-dihydroxybenzoyl)-3-{2-(2-hydroxyethoxy)ethyl}-1-ureidol]-α-phenylacetamido]-penicillanic acid], for which the MIC in [1] is 0.1 µg/mL (≈ 0.162 µM); in the assay on Escherichia coli NIHJ it was 0.4 µg/mL (≈ 0.649 µM); in assay [2], 0.4 µg/mL (≈ 0.649 µM); with Proteus mirabilis 9', 1.56 µg/mL (≈ 2.53 µM); in assay [3], 1.56 µg/mL (≈ 2.53 µM); in assay [4] it was 0.78 µg/mL (≈ 1.26 µM). For the same compound, the MIC is 0.2 µg/mL (≈ 0.324 µM) in [5], at most 0.1 µg/mL in the assay with Salmonella paratyphi A, at most 0.1 µg/mL in the assay on Shigella flexneri 2b and 0.4 µg/mL (≈ 0.649 µM) in assay [6]. Further, in [7], the “ED50 (SC)” value was determined as 1.48 mg/head.
As for `COCCN(C(=O)N[C@@H](C(=O)N[C@@H]1C(=O)N2[C@@H]1SC(C)(C)[C@@H]2C(=O)O)c1ccccc1)C(=O)c1ccc(O)c(O)c1` [compound (d), 6-[D(-)-α-{3-(3,4-dihydroxybenzoyl)-3-(2-methyoxyethyl)-1-ureido}-α-phenylacetamide]-penicillanic acid], the MIC was 0.4 µg/mL (≈ 0.682 µM) in assay [1]; 0.4 µg/mL (≈ 0.682 µM) with Escherichia coli NIHJ; 0.2 µg/mL (≈ 0.341 µM) in assay [2]; 0.2 µg/mL (≈ 0.341 µM) in the assay on Proteus mirabilis 9'; 3.12 µg/mL (≈ 5.32 µM) in assay [3]; 3.12 µg/mL (≈ 5.32 µM) in assay [4]. Moreover, the MIC in assay [5] is 0.78 µg/mL (≈ 1.33 µM); with Salmonella paratyphi A, at most 0.1 µg/mL; in the assay on Shigella flexneri 2b, at most 0.1 µg/mL; in assay [6], 0.78 µg/mL (≈ 1.33 µM). In addition, the “ED50 (SC)” value in assay [7] is 1.52 mg/head.
Consider `CC(=O)OCCCN(C(=O)N[C@@H](C(=O)N[C@@H]1C(=O)N2[C@@H]1SC(C)(C)[C@@H]2C(=O)O)c1ccccc1)C(=O)c1ccc(O)c(O)c1` [compound (e), 6-[D(-)-α-{3-(3,4-dihydroxybenzoyl)-3-(3-acetoxypropyl)-1-ureido}-α-phenylacetamido]-penicillanic acid], for which the MIC in assay [1] turned out to be 0.4 µg/mL (≈ 0.636 µM); in the assay on Escherichia coli NIHJ, 0.78 µg/mL (≈ 1.24 µM); in assay [2], 0.4 µg/mL (≈ 0.636 µM); in the assay with Proteus mirabilis 9', 0.78 µg/mL (≈ 1.24 µM); in assay [3], 6.25 µg/mL (≈ 9.94 µM); in assay [4], 3.12 µg/mL (≈ 4.96 µM). Further, the MIC was 0.4 µg/mL (≈ 0.636 µM) in [5], at most 0.1 µg/mL with Salmonella paratyphi A, at most 0.1 µg/mL with Shigella flexneri 2b and 1.56 µg/mL (≈ 2.48 µM) in assay [6]. In assay [7], the “ED50 (SC)” value worked out at 1.71 mg/head.
In the case of `CC1(C)S[C@@H]2[C@H](NC(=O)[C@H](NC(=O)N(CCCO)C(=O)c3ccc(O)c(O)c3)c3ccc(O)cc3)C(=O)N2[C@H]1C(=O)O` [compound (f), 6-[D(-)-α-{3-(3,4-dihydroxybenzoyl)-3-(3-hydroxypropyl)-1-ureido}-α-(4-hydroxyphenyl)acetamido]penicillanic acid], the MIC in assay [1] was found to be 0.4 µg/mL (≈ 0.664 µM); in the assay with Escherichia coli NIHJ it was 0.78 µg/mL (≈ 1.29 µM); in assay [2] it was 0.4 µg/mL (≈ 0.664 µM); in the assay on Proteus mirabilis 9', 1.56 µg/mL (≈ 2.59 µM); in [3], 3.12 µg/mL (≈ 5.18 µM); in assay [4] it was 0.78 µg/mL (≈ 1.29 µM). Further, the MIC was 0.2 µg/mL (≈ 0.332 µM) in assay [5], at most 0.1 µg/mL with Salmonella paratyphi A, at most 0.1 µg/mL in the assay on Shigella flexneri 2b and 0.78 µg/mL (≈ 1.29 µM) in [6]. In addition, the “ED50 (SC)” value in [7] came to 1.18 mg/head.
`CN(C(=O)N[C@@H](C(=O)N[C@@H]1C(=O)N2[C@@H]1SC(C)(C)[C@@H]2C(=O)O)c1ccccc1)C(=O)c1ccc(O)c(O)c1` [compound Z, 6-[D(-)-α-{3-(3,4-dihydroxybenzoyl)-3-methyl-1-ureido}-α-phenylacetamido]penicillanic acid, reference compound]: the MIC was 0.1 µg/mL (≈ 0.184 µM) in assay [1]; 0.2 µg/mL (≈ 0.369 µM) with Escherichia coli NIHJ; at most 0.1 µg/mL in assay [2]; 0.78 µg/mL (≈ 1.44 µM) in the assay on Proteus mirabilis 9'; 0.4 µg/mL (≈ 0.737 µM) in [3]; 0.2 µg/mL (≈ 0.369 µM) in assay [4]. Also, the MIC in assay [5] was 0.1 µg/mL (≈ 0.184 µM); with Salmonella paratyphi A it was at most 0.1 µg/mL; with Shigella flexneri 2b, at most 0.1 µg/mL; in [6], 0.4 µg/mL (≈ 0.737 µM). Moreover, the “ED50 (SC)” value in assay [7] amounted to 2.30 mg/head.
`CCN1CCN(C(=O)N[C@@H](C(=O)N[C@@H]2C(=O)N3[C@@H]2SC(C)(C)[C@@H]3C(=O)O)c2ccccc2)C(=O)C1=O` [piperacillin, 6-[D(-)-α-(4-ethyl-2,3-dioxo-1-piperazinylcarbonylamino)phenylacetamido]penicillanic acid, reference compound]: the MIC in assay [1] turned out to be 0.2 µg/mL (≈ 0.386 µM); in the assay on Escherichia coli NIHJ, 0.2 µg/mL (≈ 0.386 µM); in assay [2], 3.12 µg/mL (≈ 6.03 µM); with Proteus mirabilis 9' it was 0.78 µg/mL (≈ 1.51 µM); in assay [3], 25 µg/mL (≈ 48.3 µM); in assay [4], 12.5 µg/mL (≈ 24.2 µM). Also, the MIC is 12.5 µg/mL (≈ 24.2 µM) in [5], 0.4 µg/mL (≈ 0.773 µM) in the assay on Salmonella paratyphi A, 0.78 µg/mL (≈ 1.51 µM) with Shigella flexneri 2b and at most 0.2 µg/mL in [6]. The “ED50 (SC)” value in assay [7] worked out at 10.0 mg/head.

The values above are taken from patent publication US4355038A, “α-Substituted ureido-benzylpenicillanic acids” (Chugai Seiyaku Kabushiki Kaisha, priority 1980, dated 1982).
